Active and inactive are the calls of the source. No cut-off for these calls is given here.
Legend:
[1] = target: T1, Protein cereblon/Signal transducer and activator of transcription 3 (Homo sapiens, UniProt P40763+Q96SW2); experiment: PROTAC activity at his-SUMO-tagged STAT3 (127 to 688 residues)/CRBN in human HeLa cells assessed as induction of STAT3 degradation incubated for 24 hrs by TECAN SPARK microplate reader analysis relative to control; type: cell-based
[2] = target: T1, Protein cereblon/Signal transducer and activator of transcription 3; experiment: PROTAC activity at his-SUMO-tagged STAT3 (127 to 688 residues)/CRBN in human HeLa cells assessed as induction of STAT3 degradation incubated for 24 hrs by TECAN SPARK microplate reader analysis; type: cell-based
[3] = target: T2, Protein cereblon/Signal transducer and activator of transcription 3 (Mus musculus) (UniProt P42227+Q8C7D2); experiment: In-vivo PROTAC activity at STAT3/CRBN in female CB17 SCID mouse assessed as reduction STAT3 level liver at 10 mg/kg, iv measured at 72 hrs by Western blot analysis; type: functional, organism-based; set-up: scale not given: the % may be the effect or the level left
[4] = target: T2, Protein cereblon/Signal transducer and activator of transcription 3 (Mus musculus); experiment: In-vivo PROTAC activity at STAT3/CRBN in female CB17 SCID mouse assessed as reduction STAT3 level liver at 10 mg/kg, iv measured at 24 hrs by Western blot analysis; type: functional, organism-based; set-up: scale not given: the % may be the effect or the level left
[5] = target: T2, Protein cereblon/Signal transducer and activator of transcription 3 (Mus musculus); experiment: In-vivo PROTAC activity at STAT3/CRBN in female CB17 SCID mouse assessed as reduction STAT3 level liver at 10 mg/kg, iv measured at 48 hrs by Western blot analysis; type: functional, organism-based; set-up: scale not given: the % may be the effect or the level left
[6] = target: T2, Protein cereblon/Signal transducer and activator of transcription 3 (Mus musculus); experiment: In-vivo PROTAC activity at STAT3/CRBN in female CB17 SCID mouse assessed as reduction STAT3 level spleen at 10 mg/kg, iv measured at 72 hrs by Western blot analysis; type: functional, organism-based; set-up: scale not given: the % may be the effect or the level left
[7] = target: T2, Protein cereblon/Signal transducer and activator of transcription 3 (Mus musculus); experiment: In-vivo PROTAC activity at STAT3/CRBN in female CB17 SCID mouse assessed as reduction STAT3 level spleen at 10 mg/kg, iv measured at 48 hrs by Western blot analysis; type: functional, organism-based; set-up: scale not given: the % may be the effect or the level left
[8] = Antiproliferative activity against human SUPM2 cells assessed as cell growth inhibition incubated for 4 days by celltiter-glo assay; type: functional, cell-based; settings: SUP-M2, 96 h
[9] = test system: SU-DHL-1; experiment: Antiproliferative activity against human SU-DHL-1 cells assessed as cell growth inhibition incubated for 4 days by celltiter-glo assay; type: functional, cell-based; settings: SU-DHL-1, 96 h
[10] = Antiproliferative activity against human MOLM16 cells assessed as cell growth inhibition incubated for 4 days by celltiter-glo assay; type: functional, cell-based, MOLM-16; settings: MOLM16, 96 h
[11] = target: T2, Protein cereblon/Signal transducer and activator of transcription 3 (Mus musculus); experiment: In-vivo PROTAC activity at STAT3/CRBN in female CB17 SCID mouse assessed as reduction STAT3 level spleen at 10 mg/kg, iv measured at 24 hrs by Western blot analysis; type: functional, organism-based; set-up: scale not given: the % may be the effect or the level left
[12] = target: T1, Protein cereblon/Signal transducer and activator of transcription 3; experiment: PROTAC activity at his-SUMO-tagged STAT3 (127 to 688 residues)/CRBN in human HeLa cells assessed as induction of STAT3 degradation upto 5 uM incubated for 24 hrs by TECAN SPARK microplate reader analysis; type: cell-based
[13] = Binding affinity to STAT5 (unknown origin) by FP assay; set-up: species or system Homo sapiens

Row | Compound | Emax [1] [%] | DC50 [2] [nM] | also measured
1 | CN1CC[C@H]2CC[C@@H](C(=O)N[C@@H](CCC(N)=O)C(=O)N[C@H](C(=O)NCCCCCCCC#Cc3cccc4c3CN(C3CCC(=O)NC3=O)C4=O)c3ccccc3)N2C(=O)[C@@H](NC(=O)c2cc3cc(C(F)(F)P(=O)(O)O)ccc3s2)C1 (some centres not stated) | 52 | 1500 | 
2 | CC(C)N1CC[C@H]2CC[C@@H](C(=O)N[C@@H](CCC(N)=O)C(=O)N[C@@H](Cc3ccc(F)c(F)c3)C(=O)N3CCC(CCC#Cc4cccc5c4CN(C4CCC(=O)NC4=O)C5=O)CC3)N2C(=O)[C@@H](NC(=O)c2cc3cc(C(F)(F)P(=O)(O)O)ccc3s2)C1 (some centres not stated) | 83 | 500 | Activity [3]: > 90%; Activity [4]: > 90%; Activity [5]: > 90%; Activity [6]: > 90%; Activity [7]: > 90%; IC50 [8]: 1550 nM; IC50 [9]: 1780 nM; IC50 [10]: 93 nM; Activity [11]: > 90%
3 | CN1CC[C@H]2CC[C@@H](C(=O)N[C@@H](CCC(N)=O)C(=O)N[C@@H](C(=O)N3CCC(CCC#Cc4cccc5c4CN(C4CCC(=O)NC4=O)C5=O)CC3)C(C)(C)C)N2C(=O)[C@@H](NC(=O)c2cc3cc(C(F)(F)P(=O)(O)O)ccc3s2)C1 (some centres not stated) | 80 | 1010 | 
4 | CN1CC[C@H]2CC[C@@H](C(=O)N[C@@H](CCC(N)=O)C(=O)N[C@H](C(=O)N3CCC(CCC#Cc4cccc5c4CN(C4CCC(=O)NC4=O)C5=O)CC3)C3CCCCC3)N2C(=O)[C@@H](NC(=O)c2cc3cc(C(F)(F)P(=O)(O)O)ccc3s2)C1 (some centres not stated) | 91 | 260 | 
5 | CN1CC[C@H]2CC[C@@H](C(=O)N[C@@H](CCC(N)=O)C(=O)N[C@H](C(=O)NCCCCCCCCCC#Cc3cccc4c3CN(C3CCC(=O)NC3=O)C4)c3ccccc3)N2C(=O)[C@@H](NC(=O)c2cc3cc(C(F)(F)P(=O)(O)O)ccc3s2)C1 (some centres not stated) | 66 | 300 | 
6 | CN1CC[C@H]2CC[C@@H](C(=O)N[C@@H](CCC(N)=O)C(=O)N[C@@H](C(=O)NCCCCCCCCC#Cc3cccc4c3CN(C3CCC(=O)NC3=O)C4=O)c3ccccc3)N2C(=O)[C@@H](NC(=O)c2cc3cc(C(F)(F)P(=O)(O)O)ccc3s2)C1 (some centres not stated) | 60 | 800 | 
7 | NC(=O)CC[C@H](NC(=O)[C@@H]1CC[C@@H]2CCNC[C@H](NC(=O)c3cc4cc(C(F)(F)P(=O)(O)O)ccc4s3)C(=O)N21)C(=O)N[C@@H](Cc1ccc(F)c(F)c1)C(=O)N1CCC(CCC#Cc2cccc3c2CN(C2CCC(=O)NC2=O)C3=O)CC1 (some centres not stated) | 73 | 1200 | Activity [4]: Active; Activity [11]: Active
8 | CN1CC[C@H]2CC[C@@H](C(=O)N[C@@H](CCC(N)=O)C(=O)N[C@@H](C(=O)NCCCCCCC#Cc3cccc4c3CN(C3CCC(=O)NC3=O)C4=O)c3ccccc3)N2C(=O)[C@@H](NC(=O)c2cc3cc(C(F)(F)P(=O)(O)O)ccc3s2)C1 (some centres not stated) | 36 | > 5000 | 
9 | NC(=O)CC[C@H](NC(=O)[C@@H]1CC[C@@H]2CCN(C(=O)CCCCCC#Cc3cccc4c3CN(C3CCC(=O)NC3=O)C4=O)C[C@H](NC(=O)c3cc4cc(C(=O)P(=O)(O)O)ccc4[nH]3)C(=O)N21)C(=O)NC(c1ccccc1)c1ccccc1 (some centres not stated) | 88 | 400 | IC50 [8]: 470 nM; IC50 [9]: 300 nM; IC50 [10]: 22 nM
10 | CN1CC[C@H]2CC[C@@H](C(=O)N[C@@H](CCC(N)=O)C(=O)NC3(C(=O)N4CCC(CCC#Cc5cccc6c5CN(C5CCC(=O)NC5=O)C6=O)CC4)CCCCC3)N2C(=O)[C@@H](NC(=O)c2cc3cc(C(F)(F)P(=O)(O)O)ccc3s2)C1 (some centres not stated) | 0 | > 5000 | Activity [12]: inactive
11 | CN1CC[C@H]2CC[C@@H](C(=O)N[C@@H](CCC(N)=O)C(=O)N[C@@H](Cc3ccc(F)c(F)c3)C(=O)N3CCC(CCC#Cc4cccc5c4CN(C4CCC(=O)NC4=O)C5=O)CC3)N2C(=O)[C@@H](NC(=O)c2cc3cc(C(F)(F)P(=O)(O)O)ccc3s2)C1 (some centres not stated) | 90 | 220 | Activity [4]: 80%; Activity [11]: 50%
12 | CN1CC[C@H]2CC[C@@H](C(=O)N[C@@H](CCC(N)=O)C(=O)N[C@H](C(=O)NCCCCC#Cc3cccc4c3CN(C3CCC(=O)NC3=O)C4=O)c3ccccc3)N2C(=O)[C@@H](NC(=O)c2cc3cc(C(F)(F)P(=O)(O)O)ccc3s2)C1 (some centres not stated) | 42 | > 5000 | 
13 | CN1CC[C@H]2CC[C@@H](C(=O)N[C@@H](CCC(N)=O)C(=O)N[C@H](C(=O)N3CCC(CCC#Cc4cccc5c4CN(C4CCC(=O)NC4=O)C5=O)CC3)c3ccccc3)N2C(=O)[C@@H](NC(=O)c2cc3cc(C(F)(F)P(=O)(O)O)ccc3s2)C1 (some centres not stated) | 86 | 300 | 
14 | CCN1CC[C@H]2CC[C@@H](C(=O)N[C@@H](CCC(N)=O)C(=O)N[C@@H](Cc3ccc(F)c(F)c3)C(=O)N3CCC(CCC#Cc4cccc5c4CN(C4CCC(=O)NC4=O)C5=O)CC3)N2C(=O)[C@@H](NC(=O)c2cc3cc(C(F)(F)P(=O)(O)O)ccc3s2)C1 (some centres not stated) | 92 | 200 | Activity [4]: 80%; IC50 [8]: 540 nM; IC50 [9]: 540 nM; IC50 [10]: 31 nM; Activity [11]: 80%
15 | CN1CC[C@H]2CC[C@@H](C(=O)N[C@@H](CCC(N)=O)C(=O)N[C@H](C(=O)N3CCN(CCC#Cc4cccc5c4CN(C4CCC(=O)NC4=O)C5=O)CC3)c3ccccc3)N2C(=O)[C@@H](NC(=O)c2cc3cc(C(F)(F)P(=O)(O)O)ccc3s2)C1 (some centres not stated) | 62 | 2500 | 
16 | CN1CC[C@H]2CC[C@@H](C(=O)N[C@@H](CCC(N)=O)C(=O)N[C@H](CC(=O)N3CCC(C#Cc4cccc5c4CN(C4CCC(=O)NC4=O)C5)CC3)c3ccccc3)N2C(=O)[C@@H](NC(=O)c2cc3cc(C(F)(F)P(=O)(O)O)ccc3s2)C1 (some centres not stated) | 0 | > 5000 | 
17 | CN1CC[C@H]2CC[C@@H](C(=O)N[C@@H](CCC(N)=O)C(=O)N[C@H](C(=O)NCCCC#Cc3cccc4c3CN(C3CCC(=O)NC3=O)C4=O)c3ccccc3)N2C(=O)[C@@H](NC(=O)c2cc3cc(C(F)(F)P(=O)(O)O)ccc3s2)C1 (some centres not stated) | 16 | > 5000 | 
18 | CN1CC[C@H]2CC[C@@H](C(=O)N[C@@H](CCC(N)=O)C(=O)N[C@H](C(=O)NCCCCCC#Cc3cccc4c3CN(C3CCC(=O)NC3=O)C4=O)c3ccccc3)N2C(=O)[C@@H](NC(=O)c2cc3cc(C(F)(F)P(=O)(O)O)ccc3s2)C1 (some centres not stated) | 34 | > 5000 | 
19 | CN1CC[C@H]2CC[C@@H](C(=O)N[C@@H](CCC(N)=O)C(=O)N[C@H](CCC(=O)N3CCC(C#Cc4cccc5c4CN(C4CCC(=O)NC4=O)C5)CC3)c3ccccc3)N2C(=O)[C@@H](NC(=O)c2cc3cc(C(F)(F)P(=O)(O)O)ccc3s2)C1 (some centres not stated) | 31 | > 5000 | 
20 | CN1CC[C@H]2CC[C@@H](C(=O)N[C@@H](CCC(N)=O)C(=O)N[C@@H](Cc3ccccc3)C(=O)N3CCC(CCC#Cc4cccc5c4CN(C4CCC(=O)NC4=O)C5=O)CC3)N2C(=O)[C@@H](NC(=O)c2cc3cc(C(F)(F)P(=O)(O)O)ccc3s2)C1 (some centres not stated) | 94 | 130 | Activity [4]: 60%; Activity [11]: 50%; IC50 [13]: > 10 nM
21 | CN1CC[C@H]2CC[C@@H](C(=O)N[C@@H](CCC(N)=O)C(=O)N[C@@H](Cc3ccc(F)cc3)C(=O)N3CCC(CCC#Cc4cccc5c4CN(C4CCC(=O)NC4=O)C5=O)CC3)N2C(=O)[C@@H](NC(=O)c2cc3cc(C(F)(F)P(=O)(O)O)ccc3s2)C1 (some centres not stated) | 94 | 90 | Activity [4]: 70%; Activity [11]: 50%
22 | CN1CC[C@H]2CC[C@@H](C(=O)N[C@@H](CCC(N)=O)C(=O)N[C@](C)(C(=O)N3CCC(CCC#Cc4cccc5c4CN(C4CCC(=O)NC4=O)C5=O)CC3)c3ccccc3)N2C(=O)[C@@H](NC(=O)c2cc3cc(C(F)(F)P(=O)(O)O)ccc3s2)C1 (some centres not stated) | 2 | > 5000 | Activity [12]: inactive

From ChEMBL document CHEMBL6092220 (J Med Chem, 2024)
